Measured values: PMC11352258, “The Influence of Betulin and Its Derivatives on Selected Colorectal Cancer Cell Lines’ Viability and Their Antioxidant Systems” (Cells, 2024)
Where “and” joins values, the source holds several entries; their conditions need not be identical. Identical values can stand only once. Like-named read-outs stand apart in the source and are kept apart here.

Tests used:
[1] = tested on: catalase (CAT) activity in SW1116 cells; assay: CAT activity in SW1116 cells; assay type: cell-based; details: SW1116, 10 µg/mL, 24 h
Experimental: (§1) In addition, two colorectal cancer cell lines, RKO and SW1116, were distinguished based on a different response to the EB5 derivative. To perform subsequent analyses, the selected CRC lines were treated with EB5 derivative at a concentration of 10 µg/mL for 24 h. Untreated cells were used as a negative control. Three biological replicates were performed.
(§2) To examine the antioxidant capacity of the cells as well as lipid peroxidation and to evaluate the activity of antioxidant enzymes, the cells were suspended in lysis buffer (containing 4 mg of […]™ Protease Inhibitor Cocktail and 10 µL of Phosphatase Inhibitor Cocktail 3 in 1 mL of PBS; Sigma-Aldrich, St Louis, MO, USA). Subsequently, the cells were placed in liquid nitrogen for 30 min, followed by storage at −80 °C until further analysis.
Superoxide dismutase (SOD), glutathione peroxidase (GPx) and catalase (CAT) activities were assessed using a commercially purchased Cayman Chemicals Superoxide Dismutase Assay Kit, a Cayman Chemicals Glutathione Peroxidase Assay Kit and a Catalase Assay Kit (Cayman Chemicals, Ann Arbor, MI, USA), respectively, according to the manufacturer’s recommendations and based on a previous study. The cell supernatant from previously prepared cell lysates of the tested lines provided material for further analyses. The level of change in absorbance was measured spectrophotometrically at the appropriate wavelength for the assay, i.e., for SOD in the range 440–460 nm, for GPx at 340 nm and for CAT at 540 nm.

[2] = tested on: CAT gene expression in RKO cells; assay: CAT mRNA, real-time RT-qPCR, RKO; assay type: cell-based; details: 10 µg/mL, 24 h
Experimental: as §1
(§3) Total RNA from treated cells was extracted using TRIzol reagent (Sigma-Aldrich, St Louis, MO, USA) according to the manufacturer’s instructions. The obtained RNA was assessed qualitatively and quantitatively by agarose gel electrophoresis and by spectrophotometric measurement using MaestroNano MN-913 (MaestroGen Inc., Las Vegas, NV, USA), respectively. The obtained extracts provided the starting material for the assessment of genes changes at the mRNA level.
(§4) Changes in the expression of SOD1, SOD2, CAT and GPX3 genes involved in antioxidant systems were assessed by real-time RT-qPCR using a LightCycler® 480 System apparatus (Roche, Basel, Switzerland). A commercially purchased GoTaq® 1-Step RT-qPCR System (Promega, Madison, WI, USA) was used, while the primers and reaction conditions were the same as in the previous study performed by Kruszniewska-Rajs et al.. GAPDH was used as the reference gene. The mRNA expression level studied genes were then determined by the 2^−ΔCt relative quantification method. All samples were tested in triplicate. The specificity of the reaction was evaluated based on the melting temperature curve, as well as using electrophoresis of the amplification products in a 2% agarose gel.

[3] = tested on: RKO cells; assay: Total antioxidant capacity (ABTS+), RKO; assay type: cell-based; details: 10 µg/mL, 24 h
Experimental: as §1, §2
The ABTS+ radical cation was used to assess the total antioxidant capacity (TAC) of the tested cells. The principle of the method is based on the reduction of the formed blue-green chromophore ABTS+ as a result of the reaction of ABTS (Sigma-Aldrich, St Louis, MO, USA) with potassium persulphate (Sigma-Aldrich, St Louis, MO, USA). The degree of decolorization of the ABTS+ radical cation depends on the antioxidant activity of the cells and is determined as a function of concentration and time in relation to Trolox reactivity (TEAC-Trolox equivalent antioxidant capacity).

[4] = tested on: DLD-1 cells; assay: MTT cytotoxicity assay, DLD-1; assay type: cell-based; details: for IC50: read-out: IC50 value
Source text: (§5) Control cells were not treated with the compounds.

[5] = tested on: catalase (CAT) activity in RKO cells; assay: CAT activity in RKO cells; assay type: cell-based; details: 10 µg/mL, 24 h
Experimental: as §1, §2
Superoxide dismutase (SOD), glutathione peroxidase (GPx) and catalase (CAT) activities were assessed using a commercially purchased Cayman Chemicals Superoxide Dismutase Assay Kit, a Cayman Chemicals Glutathione Peroxidase Assay Kit and a Catalase Assay Kit (Cayman Chemicals, Ann Arbor, MI, USA), respectively, according to the manufacturer’s recommendations and based on a previous study. […] The level of change in absorbance was measured spectrophotometrically at the appropriate wavelength for the assay, i.e., for SOD in the range 440–460 nm, for GPx at 340 nm and for CAT at 540 nm.

[6] = tested on: SW1116 cells; assay: MTT cytotoxicity assay, SW1116; details: for IC50: read-out: IC50 value
Experimental: (§6) Six colorectal cancer cell lines, RKO, HT29, DLD-1, HCT116, Caco2 and SW1116 (CRL-2577, HTB-38, CCL-221, CCL-247, HTB-37, CCL-233; ATCC, Manassas, VA, USA, respectively, for CRC lines), and one normal cell line, CCD-841CoN (CRL-1790, ATCC, USA), were routinely cultured at 37 °C in a 5% CO2 incubator (Direct Heat CO2; Thermo Scientific, Waltham, MA, USA) in cell line-appropriate culture medium according to the manufacturer’s recommendations. Eagle’s minimum essential medium (EMEM) was used to culture RKO, Caco2 and CCD-841CoN lines, while McCoy’s 5A medium was used for HT29 and HCT116 lines. DLD-1 cells were grown in RPMI-1640 medium, whereas SW1116 cells were maintained in Leibovitz’s L-15 medium. All culture media were supplemented with 10% fetal bovine serum (EuroClone, Milan, Italy), and gentamycin at the concentration […] (BioWhittaker, Lonza, Basel, Switzerland) was also applied to prevent culture contamination.
(§7) For this purpose, cells were exposed to the test compound for 24 h at concentrations of 0.1, 1, 10, 20, 50 and 100 μg/mL. Control cells were not treated with the compounds. MTT (0.25 mg/mL) was then added to the cultures and incubated for 3 h at 37 °C. After a time, the cells were washed with phosphate buffered saline (PBS), and next, formazan dye was dissolved in 100 μL of dimethyl sulfoxide (Sigma-Aldrich, St Louis, MO, USA). Absorbance was measured at 540 nm using a Wallac 1420 VICTOR microplate reader (PerkinElmer, Waltham, MA, USA).

[7] = tested on: RKO cells; assay: Lipid peroxidation, MDA assay, RKO; assay type: cell-based; details: 10 µg/mL, 24 h
Experimental: (§8) In addition, two colorectal cancer cell lines, RKO and SW1116, were distinguished based on a different response to the EB5 derivative. […] Untreated cells were used as a negative control. Three biological replicates were performed. To examine the antioxidant capacity of the cells as well as lipid peroxidation and to evaluate the activity of antioxidant enzymes, the cells were suspended in lysis buffer (containing 4 mg of […]™ Protease Inhibitor Cocktail and 10 µL of Phosphatase Inhibitor Cocktail 3 in 1 mL of PBS; Sigma-Aldrich, St Louis, MO, USA). Subsequently, the cells were placed in liquid nitrogen for 30 min, followed by storage at −80 °C until further analysis. To assess the level of lipid peroxidation, the Malondialdehyde Assay Kit (Aoxre BioSciences, Burlingame, CA, USA) was used, according to the manufacturer’s recommendations.

[8] = tested on: SW1116 cells; assay: Lipid peroxidation, MDA assay, SW1116; assay type: cell-based; details: SW1116, 10 µg/mL, 24 h
Experimental: as §8

[9] = tested on: HCT116 cells; assay: MTT cytotoxicity assay, HCT116; assay type: cell-based; details: for IC50: read-out: IC50 value
Source text: as §5

[10] = tested on: RKO cells; assay: MTT cytotoxicity assay, RKO
Experimental: as §6, §7

[11] = tested on: HT29 cells; assay: MTT cytotoxicity assay, HT29; assay type: cell-based; details: for IC50: read-out: IC50 value
Source text: as §5

[12] = tested on: SOD2 gene expression in RKO cells; assay: SOD2 mRNA, real-time RT-qPCR, RKO; assay type: cell-based; details: 10 µg/mL, 24 h
Experimental: as §1, §3, §4

[13] = tested on: CAT gene expression in SW1116 cells; assay: CAT mRNA, real-time RT-qPCR, SW1116; assay type: cell-based; details: SW1116, 10 µg/mL, 24 h
Experimental: as §1, §3, §4

[14] = tested on: SOD1 gene expression in RKO cells; assay: SOD1 mRNA, real-time RT-qPCR, RKO; assay type: cell-based; details: 10 µg/mL, 24 h
Experimental: as §1, §3, §4

[15] = tested on: CCD-841CoN cells; assay: in vitro; assay type: cell-based; details: 24 h; for IC50: read-out: IC50 value
Source text: as §5

[16] = tested on: colorectal cancer cell lines RKO, HT29, DLD-1, HCT116, Caco2 and SW1116; assay: MTT cytotoxicity assay, statements over all tested cell lines
Experimental: as §6, §7

[17] = tested on: Caco2 cells; assay: MTT cytotoxicity assay, Caco2; assay type: cell-based; details: Homo sapiens, Caco-2, 24 h, read-out: IC50 value
[18] = Homo sapiens, 24 h, read-out: IC50 value

N.N.[Cl][Pt][Cl] [Cisplatin, cisplatin]
catalase activity compared to cells treated with EB5 [1]: higher catalase activity
catalase activity compared to cells treated with betulin [1]: higher catalase activity
catalase activity compared to the control [1]: higher catalase activity
CAT gene expression vs. 5FU [2]: significant increase in expression
reduction in TAC compared to the control cells [3]: about 23.6%
IC50 value ([4]; DLD-1, MTT, 24 h): 27.72 µg/mL
IC50 ([4]; DLD-1, MTT, 24 h): 92.4 µM
CAT activity compared to the betulin-treated cells [5]: slight decrease
IC50 value ([6]; SW1116, MTT, 24 h): >100 µg/mL
IC50 ([6]; SW1116, MTT, 24 h): > 333 µM
MDA level compared to the control group [7]: did not cause changes
MDA level compared to 5FU-treated cells [8]: higher level of MDA
MDA level compared to betulin-treated cells [8]: higher level of MDA
MDA level compared to the control [8]: higher level of MDA
IC50 value ([9]; HCT 116, MTT, 24 h): 3.02 µg/mL
IC50 ([9]; HCT 116, MTT, 24 h): 10.1 µM
IC50 value ([10]; MTT, 24 h): 6.35 µg/mL
IC50 ([10]; read-out: IC50 value, MTT, 24 h): 21.2 µM
IC50 value ([11]; HT29, MTT, 24 h): >100 µg/mL
IC50 ([11]; HT29, MTT, 24 h): > 333 µM
SOD2 gene expression vs. 5FU-treated cells [12]: higher expression
SOD2 gene expression vs. untreated cells [12]: statistically significant increase in SOD2 gene expression
CAT gene expression vs. 5FU [13]: difference in the expression
SOD1 gene expression vs. 5FU-treated cells [14]: statistically significant increase in expression
SOD1 gene expression vs. non-treated cells [14]: statistically significant increase in expression
IC50 value ([15]; CCD-841CoN normal cells, MTT): 27.59 µg/mL
IC50 ([15]; CCD-841CoN normal cells, MTT): 91.9 µM

C#CC(=O)OC[C@]12CC[C@@H](/C(C)=C/P(=O)(OCC)OCC)C1C1CCC3[C@@]4(C)CC[C@H](O)C(C)(C)C4CC[C@@]3(C)[C@]1(C)CC2 (some centres unmarked) [ECH147, 29-diethoxyphosphoryl-28-propynylobetulin]
IC50 ([4]; Homo sapiens, DLD-1, 24 h): 0.69 µg/mL and 1.19 µM
IC50 ([6]; Homo sapiens, SW 1116, 24 h): 5.21 µg/mL and 8.99 µM
IC50 ([9]; Homo sapiens, HCT-116, 24 h): 3.24 µg/mL and 5.59 µM
cytotoxic effect compared with the other tested compounds ([16]; MTT, 24 h): strongest cytotoxic effect
selectivity towards cancer cells ([16]; cancer lines vs normal cells): does not show selectivity towards cancer cells
change in cell viability ([16]; each of the tested cell lines, concentrations higher than 1 µg/mL): significant decrease in cell viability
IC50 [10, 18]: 1.18 µg/mL and 2.04 µM
IC50 ([11]; Homo sapiens, HT-29, 24 h): 0.63 µg/mL and 1.09 µM
IC50 [17]: 1.4 µg/mL and 2.43 µM

C=C(C)[C@@H]1CC[C@]2(COC(=O)c3cn(CP(=O)(OCC)OCC)nn3)CC[C@]3(C)C(CCC4[C@@]5(C)CC[C@H](O)C(C)(C)C5CC[C@]43C)C12 (some centres unmarked) [TR50]
IC50 ([4]; Homo sapiens, DLD-1, 24 h): 7.87 µg/mL and 11.4 µM
IC50 ([6]; Homo sapiens, SW 1116, 24 h): 33.1 µg/mL and 48.1 µM
sensitivity of cells to the compound ([6]; SW1116, 10 µg/mL, in comparison with other CRC lines and normal colonocytes): lack of sensitivity
IC50 ([9]; Homo sapiens, HCT-116, 24 h): 6.71 µg/mL and 9.76 µM
IC50 [10, 18]: 4.33 µg/mL and 6.29 µM
IC50 ([11]; Homo sapiens, HT-29, 24 h): 10.3 µg/mL and 14.9 µM
IC50 [17]: 13 µg/mL and 18.9 µM
IC50 ([15]; Homo sapiens, CCD-841CoN): 18.3 µg/mL and 26.6 µM
